Measurements as given in patent publication US9193717B2, “Mineralocorticoid receptor antagonists” (Merck Sharp & Dohme Corp., priority 2011, dated 2015).

What follows are compounds tested against T1, full-length human Mineralocorticoid Receptor (MR) (Homo sapiens, UniProt P08235) (assay: human MR NH Pro assay (PathHunter Protein:Protein interaction assay, MR antagonism)). Conditions: PathHunter CHO-K1 cells that overexpress human MR; aldosterone (0.3 nM), 6 hours at 37° C.; antagonist mode; read-out: IC50 rating.
T1 construct: full-length human Mineralocorticoid Receptor (MR); host or cells: PathHunter CHO-K1 cells
T1 sequence (P08235 1-984): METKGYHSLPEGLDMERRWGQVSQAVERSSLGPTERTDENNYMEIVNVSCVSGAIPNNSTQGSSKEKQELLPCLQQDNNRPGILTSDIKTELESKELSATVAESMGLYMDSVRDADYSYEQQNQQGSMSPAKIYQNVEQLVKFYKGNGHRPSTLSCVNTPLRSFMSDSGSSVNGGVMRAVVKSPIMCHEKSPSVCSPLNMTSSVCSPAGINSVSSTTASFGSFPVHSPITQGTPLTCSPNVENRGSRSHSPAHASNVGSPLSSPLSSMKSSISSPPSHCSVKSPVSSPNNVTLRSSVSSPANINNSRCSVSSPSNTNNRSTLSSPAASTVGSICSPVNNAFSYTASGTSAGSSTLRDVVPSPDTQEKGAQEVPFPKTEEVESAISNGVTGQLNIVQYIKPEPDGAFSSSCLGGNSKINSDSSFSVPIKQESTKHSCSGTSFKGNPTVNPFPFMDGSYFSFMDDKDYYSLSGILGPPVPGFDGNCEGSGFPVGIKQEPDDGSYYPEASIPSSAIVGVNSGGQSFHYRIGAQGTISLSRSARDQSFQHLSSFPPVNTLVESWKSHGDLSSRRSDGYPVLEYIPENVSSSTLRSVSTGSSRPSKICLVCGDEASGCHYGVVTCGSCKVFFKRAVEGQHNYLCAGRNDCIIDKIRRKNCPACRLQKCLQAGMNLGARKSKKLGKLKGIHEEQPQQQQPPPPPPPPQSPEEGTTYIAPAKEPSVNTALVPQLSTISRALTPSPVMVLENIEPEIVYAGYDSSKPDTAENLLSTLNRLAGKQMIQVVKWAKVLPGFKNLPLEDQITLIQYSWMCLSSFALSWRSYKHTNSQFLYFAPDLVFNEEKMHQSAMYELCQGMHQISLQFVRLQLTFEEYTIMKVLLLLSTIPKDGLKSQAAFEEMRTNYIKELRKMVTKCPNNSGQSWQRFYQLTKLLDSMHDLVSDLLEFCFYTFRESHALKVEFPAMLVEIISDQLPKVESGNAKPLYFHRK
Assay type: cell-based
Procedure: The activity of the compounds of the present invention regarding mineralocorticoid receptor antagonism was evaluated using the following assay.
Assessment of Mr Potency in HMR NH Pro Assay
The human MR NH Pro assay is a commercially available PathHunter™ Protein:Protein interaction assay (DiscoveRx; http://www.discoverx.com/nhrs/prod-nhrs.php) that measures the ability of compounds to antagonize full-length human Mineralocorticoid Receptor (MR) binding to a coactivator peptide. PathHunter™ CHO—K1 cells that overexpress human MR (Cat #93-0456C2, Lot No: 09B0913) were cultured in growth media (F12K w/Glutamine and phenol red (Gibco 11765-047) supplemented with 10% HI FBS (Gibco 16000); 0.25 mg/ml Hygromycin in PBS (Invitrogen 10687-010, 50 mg/ml); 100 I.U./mL and 100 μg/mL Pen/Strep (Gibco 15140-122); 0.6 mg/mL Geneticin).
Compounds were assessed for MR antagonist activity by incubating the cells with a titrating dose of compound in F12K w/Glutamine and phenol red culture media (Invitrogen 11765-047) supplemented with 1% Charcoal/Dextran Treated FBS (Hyclone #SH30068.01) and aldosterone (0.3 nM) for 6 hours at 37° C. […] Growth Media: • F12K w/Glutamine and phenol red (Gibco 11765-047) • 10% HI FBS (Gibco 16000) • 0.25 mg/ml Hygromycin in PBS (Invitrogen 10687-010, 50 mg/ml) • 100 I.U./mL and 100 μg/mL Pen/Strep (Gibco 15140-122) • 0.6 mg/mL Geneticin (Gibco 10131, 50 mg/ml) • 2. Assay Media: • F12K w/Glutamine and phenol red (Invitrogen 11765-047) • 1% Charcoal/Dextran Treated FBS (Hyclone #SH30068.01) • 3. 3× PathHunter Detection Reagents (Cat#93-0001) (need ˜6 ml/plate). […] Control Agonist:Aldosterone:Sigma cat# A9477 • Prepare stock solution-10 μM in DMSO kept at −20° C. • for assay, dilute in assay media to 1.8 or 6 nM (6× of final concentration=about 0.3 nM to about 1.0 nM) • 5. Cell line: PathHunter CHO—K1 MR cells Cat #93-0456C2, Lot No: 09B0913, from operation liquid nitrogen stock. • 6. Control Antagonist:Spironolactone:Sigma #S-3378 and Eplerenone Sigma #107724-20-9 (10 mM stock concentration also prepared in DMSO and stored at −20° C.). • Methods: • Assay Set up and Calculations: • 1. Cells were grown in F12+FBS+Hygromycin+pen/strep+Genetin • 2. Cells were collected with 0.05% trypsin and the cell suspension was spun and resuspended in a volume of F12+1.5% CD-FBS and counted. • 3. The cells were resuspended to 4×10^5 cells/mL. • 4. Cells were (25 μL/well) added to the wells of a 384 well plate. • 5. The plate was then incubated at 37° C. over night in a humidified incubator with 5% CO2. • 6. Test compounds were titrated starting at 4.4 mM, 10-point titration in 1:3 dilution. • 7. Aldosterone was diluted in assay media to 1.8 nM or 6 nM from 10 μM stock (final concentration to be about 0.3 nM to about 1.0 nM). • Protocol for 384 Well Plate Format: 6 Hr Treatment: • 1. Plated 10K exponentially growing cells/well (25 μL) resuspended in assay media to each well using the Multidrop (Thermo Electron) (use white wall, clear bottom assay plates (Costar #3570) and incubate overnight at 37° C., 5% CO2. • 2. 0.25 μL 120× test compound (final DMSO concentration should be <1%) was added to each well n=2, 10 point titrations starting at 36.7 μM final concentration. • 3. 5 μL 6× agonist (final aldosterone concentration should be about 0.3 nM to about 1.0 nM) was added to all wells using the PlateMate Plus.
(ThermoFisher) (except those wells in columns 23 and 24) • 4. 5 μL of assay media was added to all wells in column 23 and 24. • 5. Plates were incubated 6 hrs at 37° C., 5% CO2. • 6. 15 μL 3× DiscoveRx detection reagent was added to each well. • 7. Plates were incubated for 1 hour at room temperature (plates stored in the dark). • 8. Plates were read on Envision (PerkinElmer) luminesence plate reader and analyzed using ADA.

| SMILES | IC50 [µM] |
| --- | --- |
| C[C@H](c1ccc(F)cc1)N1C(=O)O[C@](Cc2ccccc2)(c2nc3c(Cl)cccc3[nH]2)C1=O [Compound 20, 5-Benzyl-5-(4-chloro-1H-benzimidazol-2-yl)-3-[(1R)-1-(4-fluorophenyl)ethyl]-1,3-oxazolidine-2,4-dione] | 0.1 to 0.5 |
| CNC(=O)c1ccc2[nH]c([C@@]3(Cc4ccccc4)OC(=O)N([C@H](C)c4ccc(F)cc4)C3=O)nc2c1 [Compound 21, Methyl 2-{(5R)-5-benzyl-3-[(1R)-1-(4-fluorophenyl)ethyl]-2,4-dioxo-1,3-oxazolidin-5-yl}-1H-benzimidazole-5-carboxamide] | 0.1 to 0.5 |
| C[C@H](c1ccc(F)cc1)N1C(=O)O[C@](Cc2ccccc2)(c2nc3cc(-c4cncnc4)ccc3[nH]2)C1=O [Compound 22, (5R)-5-Benzyl-3-[(1R)-1-(4-fluorophenyl)ethyl]-5-(5-pyrimidin-5-yl-1H-benzimidazol-2-yl)-1,3-oxazolidine-2,4-dione] | < 0.1 |
| Cc1noc(C)c1-c1ccc2[nH]c([C@@]3(Cc4ccccc4)OC(=O)N([C@H](C)c4ccc(F)cc4)C3=O)nc2c1 [Compound 23, (5R)-5-Benzyl-5-[5-(3,5-dimethylisoxazol-4-yl)-1H-benzimidazol-2-yl]-3-[(1R)-1-(4-fluorophenyl)ethyl]-1,3-oxazolidine-2,4-dione] | < 0.1 |
| C[C@H](c1ccc(F)cc1)N1C(=O)O[C@](Cc2ccccc2)(c2nc3cc(-c4cnn(C)c4)ccc3[nH]2)C1=O [Compound 24, (5R)-5-Benzyl-3-[(1R)-1-(4-fluorophenyl)ethyl]-5-[5-(1-methyl-1H-pyrazol-4-yl)-1H-benzimidazol-2-yl]-1,3-oxazolidine-2,4-dione] | < 0.1 |
| C[C@H](c1ccc(F)cc1)N1C(=O)O[C@](Cc2ccccc2)(c2nc3cc(-c4cccnc4)ccc3[nH]2)C1=O [Compound 25, (5R)-5-Benzyl-3-[(1R)-1-(4-fluorophenyl)ethyl]-5-(5-pyridin-3-yl-1H-benzimidazol-2-yl)-1,3-oxazolidine-2,4-dione] | < 0.1 |
| C[C@H](c1ccc(F)cc1)N1C(=O)O[C@](Cc2ccccc2)(c2nc3cc(-c4cn[nH]c4)ccc3[nH]2)C1=O [Compound 26, (5R)-5-Benzyl-3-[(1R)-1-(4-fluorophenyl)ethyl]-5-[5-(1H-pyrazol-4-yl)-1H-benzimidazol-2-yl]-1,3-oxazolidine-2,4-dione] | < 0.1 |
| C[C@H](c1ccc(F)cc1)N1C(=O)O[C@](Cc2ccccc2)(c2nc3cc(-c4cc[nH]n4)ccc3[nH]2)C1=O [Compound 27, (5R)-5-Benzyl-3-[(1R)-1-(4-fluorophenyl)ethyl]-5-[5-(1H-pyrazol-5-yl)-1H-benzimidazol-2-yl]-1,3-oxazolidine-2,4-dione] | 0.1 to 0.5 |
| C[C@H](c1ccc(F)cc1)N1C(=O)O[C@](Cc2ccccc2)(c2nc3cc(-c4cncc(F)c4)ccc3[nH]2)C1=O [Compound 28, (5R)-5-Benzyl-3-[(1R)-1-(4-fluorophenyl)ethyl]-5-[5-(5-fluoro-pyridin-3-yl)-1H-benzimidazol-2-yl]-1,3-oxazolidine-2,4-dione] | < 0.1 |
| C[C@H](c1ccc(F)cc1)N1C(=O)O[C@](Cc2ccccc2)(c2nc3c(-c4cnoc4)cccc3[nH]2)C1=O [Compound 30, (5R)-5-Benzyl-3-[(1R)-1-(4-fluorophenyl)ethyl]-5-(4-isoxazol-4-yl-1H-benzimidazol-2-yl)-1,3-oxazolidine-2,4-dione] | 0.5 to 2 |
| C[C@H](c1ccc(F)cc1)N1C(=O)O[C@](Cc2ccccc2)(c2nc3c(-c4cnn(C)c4)cccc3[nH]2)C1=O [Compound 31, (5R)-5-Benzyl-3-[(1R)-1-(4-fluorophenyl)ethyl]-5-[4-(1-methyl-1H-pyrazol-4-yl)-1H-benzimidazol-2-yl]-1,3-oxazolidine-2,4-dione] | 0.1 to 0.5 |
| C[C@H](c1ccc(F)cc1)N1C(=O)O[C@](Cc2ccccc2)(c2nc3c(-c4ccnn4C)cccc3[nH]2)C1=O [Compound 32, (5R)-5-Benzyl-3-[(1R)-1-(4-fluorophenyl)ethyl]-5-[4-(1-methyl-1H-pyrazol-5-yl)-1H-benzimidazol-2-yl]-1,3-oxazolidine-2,4-dione] | 0.1 to 0.5 |
| COc1ncccc1-c1cccc2[nH]c([C@@]3(Cc4ccccc4)OC(=O)N([C@H](C)c4ccc(F)cc4)C3=O)nc12 [Compound 33, (5R)-5-Benzyl-3-[(1R)-1-(4-fluorophenyl)ethyl]-5-[4-(2-methoxypyridin-3-yl)-1H-benzimidazol-2-yl]-1,3-oxazolidine-2,4-dione] | < 0.1 |
| C[C@H](c1ccc(F)cc1)N1C(=O)O[C@](Cc2ccccc2)(c2nc3c(-c4ccncc4)cccc3[nH]2)C1=O [Compound 34, (5R)-5-Benzyl-3-[(1R)-1-(4-fluorophenyl)ethyl]-5-(4-pyridin-4-yl-1H-benzimidazol-2-yl)-1,3-oxazolidine-2,4-dione] | 0.1 to 0.5 |
| C[C@H](c1ccc(F)cc1)N1C(=O)O[C@](Cc2ccccc2)(c2nc3c(-c4cncnc4)cccc3[nH]2)C1=O [Compound 35, (5R)-5-Benzyl-3-[(1R)-1-(4-fluorophenyl)ethyl]-5-(4-pyrimidin-5-yl-1H-benzimidazol-2-yl)-1,3-oxazolidine-2,4-dione] | 0.1 to 0.5 |
| C[C@H](c1ccc(F)cc1)N1C(=O)O[C@](Cc2ccccc2)(c2nc3c(-c4cccnc4)cccc3[nH]2)C1=O [Compound 36, (5R)-5-Benzyl-3-[(1R)-1-(4-fluorophenyl)ethyl]-5-(4-pyridin-3-yl-1H-benzimidazol-2-yl)-1,3-oxazolidine-2,4-dione] | 0.1 to 0.5 |
